Assay results as given in PubChem BioAssay (NCI).
Several values for one entry are separate records, joined by “and”; a condition that tells them apart may be missing. Equal values may be shown once.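 All cell lines were grown in 96-well plates and treated with compound for 48 hours. GI50: concentration for 50% inhibition of growth. The concentration for full growth arrest is given as TGI.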

Columns and labels:
Assay in all cases: NCI-60 cell line screen, 48 h; in the data active = GI50 below about 0.43 µM; inactive = the rest
[1] = tested on: RPMI-8226 leukemia
[2] = tested on: T-47D breast
[3] = tested on: HS 578T breast
[4] = tested on: NCI-H460 lung
[5] = tested on: MCF7 breast
[6] = tested on: MDA-MB-231 breast
[7] = tested on: HCT-15 colon
[8] = tested on: SK-OV-3 ovarian
[9] = tested on: RXF 393 renal
[10] = tested on: SNB-19 CNS
[11] = tested on: M14 melanoma
[12] = tested on: NCI-H226 lung
[13] = tested on: HOP-62 NSCLC
[14] = tested on: PC-3 prostate
[15] = tested on: A549 NSCLC
[16] = tested on: U251 CNS
[17] = tested on: SF-295 CNS
[18] = tested on: SF-539 CNS
[19] = tested on: BT-549 breast
[20] = tested on: UO-31 renal
[21] = tested on: LOX IMVI melanoma
[22] = tested on: NCI-H23 lung
[23] = tested on: HL-60(TB) leukemia
[24] = tested on: UACC-62 melanoma
[25] = tested on: UACC-257 melanoma
[26] = tested on: MDA-MB-435
[27] = tested on: HCT-116 colon
[28] = tested on: OVCAR-8 ovarian
[29] = tested on: HT29 colon
[30] = tested on: OVCAR-3 ovarian
[31] = tested on: EKVX NSCLC
[32] = tested on: SK-MEL-2 melanoma
[33] = tested on: COLO 205 colon
[34] = tested on: IGROV1 ovarian
[35] = tested on: K-562 leukemia
[36] = tested on: SF-268 CNS
[37] = tested on: KM12 colon
[38] = tested on: CAKI-1 renal
[39] = tested on: ACHN renal
[40] = tested on: SN12C renal
[41] = tested on: DU-145 prostate
[42] = tested on: 786-0 renal
[43] = tested on: OVCAR-5 ovarian
[44] = tested on: MOLT-4 leukemia
[45] = tested on: SK-MEL-5 melanoma
[46] = tested on: SR leukemia
[47] = tested on: CCRF-CEM leukemia
[48] = tested on: MALME-3M melanoma
[49] = tested on: HCC-2998 colon
[50] = tested on: OVCAR-4 ovarian
[51] = tested on: A498 renal
[52] = tested on: SNB-75 CNS
[53] = tested on: SK-MEL-28 melanoma
[54] = tested on: SW-620 colon
[55] = tested on: NCI-H522 lung
[56] = tested on: NCI/ADR-RES ovarian
[57] = tested on: HOP-92 NSCLC
[58] = tested on: TK-10 renal

CCn1c(CO)nn(-c2cc(O[C@@H](C)C(F)(F)F)c(C(=O)Nc3c(F)cccc3Cl)cc2F)c1=O
> 100000 nM: TGI [3] | TGI [5] | TGI [6] | TGI [7] | TGI [8] | TGI [9] | TGI [10] | TGI [11] | TGI [12] | TGI [13] | TGI [14] | TGI [15] | TGI [16] | TGI [17] | TGI [18] | TGI [19] | TGI [20] | TGI [22] | TGI [24] | TGI [25] | TGI [26] | TGI [27] | TGI [28] | TGI [29] | TGI [30] | TGI [31] | TGI [32] | TGI [33] | TGI [34] | TGI [35] | TGI [36] | TGI [37] | TGI [38] | TGI [39] | TGI [40] | TGI [41] | TGI [43] | TGI [44] | TGI [47] | TGI [48] | TGI [49] | TGI [50] | TGI [51] | TGI [52] | TGI [53] | TGI [54] | TGI [55] | TGI [57]
> 46700 nM: TGI [23]
> 39100 nM: TGI [45]
> 93500 nM: TGI [56]
active: GI50 [1] < 10 nM | GI50 [2] 72.3 nM | GI50 [4] < 10 nM | GI50 [5] < 10 nM | GI50 [7] < 10 nM | GI50 [10] < 10 nM | GI50 [11] < 14.4 nM | GI50 [13] < 25.5 nM | GI50 [14] < 10 nM | GI50 [15] < 10 nM | GI50 [16] < 10 nM | GI50 [17] < 10 nM | GI50 [18] < 10 nM | GI50 [21] < 10 nM | GI50 [22] < 43.8 nM | GI50 [23] 35.7 nM | GI50 [24] < 21.7 nM | GI50 [26] < 17.6 nM | GI50 [27] < 10 nM | GI50 [28] < 10 nM | GI50 [29] < 10 nM | GI50 [30] 30.4 nM | GI50 [33] < 10 nM | GI50 [34] < 11.3 nM | GI50 [35] < 10 nM | GI50 [36] 196 nM | GI50 [37] < 10 nM | GI50 [38] < 14.8 nM | GI50 [39] < 12.2 nM | GI50 [40] 81 nM | GI50 [41] < 19.2 nM | GI50 [42] < 19.7 nM | GI50 [44] < 10 nM | GI50 [45] < 15.2 nM | GI50 [46] < 10 nM | GI50 [47] < 10 nM | GI50 [49] < 10 nM | GI50 [54] < 10 nM | GI50 [55] < 10 nM | GI50 [56] < 24.5 nM
> 62200 nM: TGI [1]
86200 nM: TGI [2]
> 33900 nM: TGI [4]
> 78000 nM: TGI [42]
inactive: GI50 [3] > 22300 nM | GI50 [6] > 20100 nM | GI50 [8] 3050 nM | GI50 [20] 1020 nM | GI50 [31] 8470 nM | GI50 [32] > 28400 nM | GI50 [43] > 100000 nM | GI50 [48] > 32200 nM | GI50 [51] 3840 nM | GI50 [53] > 24400 nM | GI50 [57] 17700 nM
> 43100 nM: TGI [46]

COc1cc2c(c(OC)n1)[C@]1(O)[C@H](O)[C@H](CN(C)C)[C@@H](c3ccccc3)[C@]1(c1ccc(C#N)cc1)O2
866 nM and 1430 nM: TGI [43]
299 nM and 150 nM: TGI [1]
2450 nM and 2120 nM: TGI [25]
active: GI50 [1] 15.1 nM and < 10 nM | GI50 [2] < 10 nM | GI50 [3] 40.2 nM and 36.7 nM | GI50 [4] < 10 nM | GI50 [5] < 10 nM | GI50 [6] 33.6 nM and 24.2 nM | GI50 [7] 24.3 nM and 19.7 nM | GI50 [8] 48.1 nM and 28.4 nM | GI50 [9] 35.9 nM and 19.5 nM | GI50 [10] 11.1 nM and 10.4 nM | GI50 [11] 14.7 nM and 10.2 nM | GI50 [12] 25.4 nM and < 13.1 nM | GI50 [13] < 15.1 nM and 10.2 nM | GI50 [14] 22.3 nM and < 11.6 nM | GI50 [15] < 10 nM | GI50 [16] 20 nM and < 11.1 nM | GI50 [17] 21.2 nM and 23.1 nM | GI50 [18] 14.2 nM and < 11.6 nM | GI50 [19] 45.1 nM and 73.7 nM | GI50 [20] 22.4 nM and 19.7 nM | GI50 [21] < 10 nM | GI50 [22] 18.2 nM and 11.1 nM | GI50 [23] < 10 nM | GI50 [24] 35.9 nM and 35.8 nM | GI50 [25] 41.7 nM and 42.7 nM | GI50 [26] 16.3 nM and 14.3 nM | GI50 [27] < 10 nM | GI50 [28] 29.2 nM and 31.6 nM | GI50 [29] < 10 nM | GI50 [30] 33.4 nM and 14.6 nM | GI50 [31] 30.5 nM and 23.7 nM | GI50 [32] 31.9 nM and 34 nM | GI50 [33] 11.4 nM and < 11.1 nM | GI50 [34] 13.4 nM and < 10 nM | GI50 [35] < 10 nM | GI50 [36] 24.9 nM and 14.8 nM | GI50 [37] 12.8 nM and < 10 nM | GI50 [38] 27.6 nM and 17.8 nM | GI50 [39] < 11.6 nM and 11.7 nM | GI50 [40] 15.6 nM and < 13.2 nM | GI50 [41] 19.1 nM and < 13.6 nM | GI50 [42] 44.3 nM and 31.3 nM | GI50 [43] 20.8 nM and 17.4 nM | GI50 [44] < 10 nM | GI50 [45] 20.6 nM and 19.6 nM | GI50 [46] 24.6 nM and < 11.4 nM | GI50 [47] < 10 nM | GI50 [58] 54.3 nM and 67.2 nM | GI50 [48] 19.4 nM and 19 nM | GI50 [49] < 10 nM | GI50 [50] 37.1 nM and 25.1 nM | GI50 [51] 19.2 nM and 20.1 nM | GI50 [52] 100 nM and 47 nM | GI50 [53] 33.4 nM and 31.3 nM | GI50 [54] 12.4 nM and < 10 nM | GI50 [55] 25.7 nM and 21.2 nM | GI50 [56] 54.6 nM and 71 nM | GI50 [57] 52.1 nM and 34.6 nM
15.3 nM and 13.3 nM: TGI [21]
1150 nM and 2240 nM: TGI [55]
3890 nM and 2930 nM: TGI [56]
564 nM and 810 nM: TGI [49]
811 nM and 1840 nM: TGI [17]
3650 nM and 3440 nM: TGI [7]
3480 nM and 6880 nM: TGI [4]
3450 nM and 3690 nM: TGI [41]
2390 nM and 7950 nM: TGI [16]
4480 nM: TGI [46]
4580 nM and 2020 nM: TGI [52]
3720 nM and 5270 nM: TGI [50]
479 nM and 319 nM: TGI [20]
825 nM and 2620 nM: TGI [19]
67.6 nM and 556 nM: TGI [45]
4300 nM and 991 nM: TGI [57]
700 nM and 841 nM: TGI [48]
1720 nM and 1480 nM: TGI [6]
2780 nM and 1870 nM: TGI [30]
721 nM and 3090 nM: TGI [5]
2810 nM and 2540 nM: TGI [31]
813 nM and 1560 nM: TGI [53]
3810 nM and 2330 nM: TGI [2]
3370 nM and 10400 nM: TGI [54]
1680 nM and 4380 nM: TGI [38]
10700 nM and 2390 nM: TGI [14]
96.3 nM and 122 nM: TGI [18]
148 nM and 558 nM: TGI [39]
1970 nM and 1160 nM: TGI [3]
3520 nM and 565 nM: TGI [13]
921 nM and 213 nM: TGI [23]
44.2 nM and 57.2 nM: TGI [33]
1060 nM and 8130 nM: TGI [26]
2020 nM and 1850 nM: TGI [36]
193 nM and 114 nM: TGI [11]
3800 nM and 4210 nM: TGI [10]
10100 nM and 11500 nM: TGI [28]
1940 nM and 1610 nM: TGI [40]
7370 nM and 4060 nM: TGI [42]
> 52700 nM and 13600 nM: TGI [47]
502 nM and 103 nM: TGI [9]
2440 nM and 1930 nM: TGI [34]
4250 nM and 4040 nM: TGI [29]
2900 nM and 6220 nM: TGI [58]
2630 nM and 4340 nM: TGI [24]
2650 nM and 1700 nM: TGI [27]
318 nM and 369 nM: TGI [32]
3610 nM and 7590 nM: TGI [37]
1760 nM and 1030 nM: TGI [22]
51.8 nM and 77.3 nM: TGI [51]
7950 nM and 2100 nM: TGI [8]
8420 nM and 8640 nM: TGI [15]
4340 nM and 1280 nM: TGI [12]
